1 molecule from ChEMBL document CHEMBL3351853, “Discovery of small molecular inhibitors targeting HIV-1 gp120-CD4 interaction drived from BMS-378806” (Eur J Med Chem, 2014) can be followed below.

The term EC50 denotes the concentration giving half of the maximal effect. The low end stands for an effect from little substance, the high end for a need for much substance.

A short description of this assay: Inhibition of HIV-1 gp120/CD4 interaction.

`C[C@@H]1CN(C(=O)c2ccccc2)CCN1C(=O)C(=O)c1c[nH]c2ccccc12`: the EC50 turned out to be 4 nM.
